These results are taken from BindingDB's records for doi:10.7270/Q28G8J4C (Broad Institute, 2009).

SMILES strings stand for the structures. A value given as a limit tells only on which side of the number the result lay.

The target in this assay is T1, POsterior Segregation (Caenorhabditis elegans, UniProt G5EF15).
T1 sequence (G5EF15 whole entry): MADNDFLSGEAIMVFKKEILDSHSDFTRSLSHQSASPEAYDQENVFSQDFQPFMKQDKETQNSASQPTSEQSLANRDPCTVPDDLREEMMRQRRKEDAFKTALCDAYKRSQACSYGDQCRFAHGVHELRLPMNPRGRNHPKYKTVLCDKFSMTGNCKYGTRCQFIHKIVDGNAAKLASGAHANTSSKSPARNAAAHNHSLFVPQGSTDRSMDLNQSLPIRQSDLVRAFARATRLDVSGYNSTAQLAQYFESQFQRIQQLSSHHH
The assay is described as follows: inhibitors of POS-1/mex-3 RNA binding, dose response, biochemical, fluorescence polarization (AID 1964).
Consider `CCCCN1C(=O)/C(=C2/Sc3ccccc3N2C)SC1=Nc1nnc[nH]1` [SMR000282142], for which the EC50 is 58.7 µM. For the molecule `Oc1ccc(CN=Nc2ncnc3nc[nH]c23)cc1` [SMR000320358], the EC50 is > 300 µM. As to `COC(=O)c1ccc(-n2c(C)cc(CN=Nc3nc(C)cc(=O)[nH]3)c2C)cc1` [SMR000364461], the 50% effective concentration (EC50) was > 300 µM. Regarding `O=C(N/N=C/C1C=C(Cl)C=C([N+](=O)[O-])C1=O)c1ccccc1NS(=O)(=O)c1cccs1` (stereo not drawn) [SMR000364876], a half-maximal response (EC50) required 282 µM. `Cc1cc(C(=O)NN=CC2C=C(Cl)C=C([N+](=O)[O-])C2=O)[nH]n1` (stereo not drawn) [SMR000414694]: the EC50 was > 300 µM. As for `Cn1c(=O)[nH]c(=O)c2c1nc(N=NC=C(Br)Cc1ccccc1)n2CCO` [SMR000436442], the concentration for a half-maximal effect (EC50) was found to be 206 µM. `COc1ccccc1N1C(=O)NC(=O)C(=Cc2c[nH]c3ccccc23)C1=O` [SMR000495900]: the EC50 was > 300 µM. Regarding `Cc1cc(-c2ccccc2)nc(N=NCc2ccc(O)cc2O)n1` [SMR000513422], the concentration for a half-maximal effect (EC50) was > 300 µM. In the case of `Cc1[nH]n(C(N)=S)c(=O)c1N=Nc1c(Cl)cc([N+](=O)[O-])cc1Cl` [SMR000514008], the concentration for a half-maximal effect (EC50) is > 300 µM.

`CC1(C)CC(=O)C2=C(C1)OC(=N)C(C#N)C2c1ccc2c(c1)OCO2` (stereo not drawn) [SMR000514966]: the EC50 is > 300 µM. `O=C1C=CC(/C=C/c2nc(O)c([N+](=O)[O-])c(=O)[nH]2)C=C1O` (stereo not drawn) [SMR000524347] registered an EC50 of 250 µM.

`c1ccc(C2=NNC(c3ccccn3)N=N2)nc1` (stereo not drawn) [SMR000549436]: the concentration for a half-maximal effect (EC50) turned out to be 25.3 µM.

As for `O=C1NC(=O)N(c2ccc(F)cc2)C(=O)C1=Cc1c[nH]c2ccccc12` [SMR000556295], a half-maximal response (EC50) required 52.2 µM. `Cn1cc(C=C2C(=O)NC(=O)N(c3ccccc3)C2=O)c2ccccc21` [SMR000559087] had an EC50 of 5.28 µM. In turn, `O=C1N=C(N2C=CC(c3ccncc3)C=C2)C(=CN=NC(=O)c2ccccc2O)S1` [SMR000646350] registered an EC50 of 11.9 µM.

`CN(C)[C@@H]1C(=O)C(C(N)=O)C(=O)[C@@]2(O)C(=O)C3C(=O)c4c(O)cccc4[C@@](C)(O)C3C(O)C12` (stereo partly drawn) [SMR000875333]: it took 54.1 µM to reach a half-maximal effect (EC50).

As for `CCOC(=O)c1c(NC=C2C(=O)NC(=S)NC2=O)sc(C)c1C` [ethyl 2-[[4,6-bis(oxidanylidene)-2-sulfanylidene-1,3-diazinan-5-yl]methylideneamino]-4,5-dimethyl-thiophene-3-carboxylate], the concentration giving a half-maximal response (EC50) is > 300 µM.

As to `COC(=O)c1[nH]c2cc(OC)c(OC)cc2c1CN=Nc1ccccc1` [methyl (3Z)-5,6-dimethoxy-3-[(2-phenylhydrazinyl)methylidene]indole-2-carboxylate], the EC50 was determined as 20 µM.
